Assay results from the NIST ThermoML archive (doi:10.1021/acs.jced.8b00958).

Test: mn = molality of the nth substance listed, in mol/kg
Settings: 85 kPa, Liquid; for viscosity: Falling or rolling sphere viscometry; for speed of sound: Frequency=3 MHz, Single path-length method; for mass density: Vibrating tube method

O=C(CO)[C@@H](O)[C@H](O)[C@H](O)CO [D-fructose] + O
Settings | mass density [kg/m3] | speed of sound [m/s] | viscosity [mPa·s]
288.15 K, m1 = 0.0498 | 1002.61 | – | 1.163
288.15 K, m1 = 0.1521 | – | – | 1.224
288.15 K, m1 = 0.2488 | 1016.24 | 1484.3 | 1.274
288.15 K, m1 = 0.3494 | 1022.9 | 1491.6 | 1.335
288.15 K, m1 = 0.4476 | 1029.24 | 1498.6 | 1.394
288.15 K, m1 = 0.5483 | 1035.58 | – | 1.465
288.15 K, m1 = 0.6491 | 1041.8 | 1512.6 | 1.529
298.15 K, m1 = 0.0498 | 1000.49 | – | –
298.15 K, m1 = 0.1521 | – | 1506.7 | 0.964
298.15 K, m1 = 0.2488 | 1013.83 | 1513.1 | 0.993
298.15 K, m1 = 0.3494 | 1020.36 | 1519.4 | 1.038
298.15 K, m1 = 0.4476 | 1026.59 | 1525.6 | 1.08
298.15 K, m1 = 0.5483 | 1032.83 | 1532 | 1.133
298.15 K, m1 = 0.6491 | 1038.95 | 1538.4 | 1.178
308.15 K, m1 = 0.0498 | 997.41 | – | –
308.15 K, m1 = 0.1521 | 1004.25 | 1528.8 | 0.774
308.15 K, m1 = 0.2488 | – | 1534.4 | 0.804
308.15 K, m1 = 0.3494 | 1016.98 | 1540.3 | 0.836
308.15 K, m1 = 0.4476 | 1023.1 | 1546 | 0.87
308.15 K, m1 = 0.5483 | 1029.27 | 1551.3 | 0.909
308.15 K, m1 = 0.6491 | 1035.3 | 1556.9 | 0.941
318.15 K, m1 = 0.0498 | 993.54 | – | 0.624
318.15 K, m1 = 0.1521 | 1000.27 | – | 0.648
318.15 K, m1 = 0.2488 | – | 1549.8 | 0.67
318.15 K, m1 = 0.3494 | 1012.8 | 1555 | 0.699
318.15 K, m1 = 0.4476 | 1018.84 | 1559.9 | 0.718
318.15 K, m1 = 0.5483 | 1024.89 | 1565.3 | 0.747
318.15 K, m1 = 0.6491 | 1030.8 | 1570.3 | 0.777
